Experimental data: patent US20220395496A1 (Hoffmann-La Roche Inc., priority 2019, published 2022)

Each molecule was assayed against T1, human TLR8 (Homo sapiens, UniProt Q9NR97) (assay: HEK293-Blue-hTLR-8 cells assay (SEAP reporter, R848 stimulation)). Settings: HEK293-Blue-hTLR8 cells, R848, 20 hrs; lowest tested concentration 0.0032.
T1 sequence (Q9NR97 27-1041): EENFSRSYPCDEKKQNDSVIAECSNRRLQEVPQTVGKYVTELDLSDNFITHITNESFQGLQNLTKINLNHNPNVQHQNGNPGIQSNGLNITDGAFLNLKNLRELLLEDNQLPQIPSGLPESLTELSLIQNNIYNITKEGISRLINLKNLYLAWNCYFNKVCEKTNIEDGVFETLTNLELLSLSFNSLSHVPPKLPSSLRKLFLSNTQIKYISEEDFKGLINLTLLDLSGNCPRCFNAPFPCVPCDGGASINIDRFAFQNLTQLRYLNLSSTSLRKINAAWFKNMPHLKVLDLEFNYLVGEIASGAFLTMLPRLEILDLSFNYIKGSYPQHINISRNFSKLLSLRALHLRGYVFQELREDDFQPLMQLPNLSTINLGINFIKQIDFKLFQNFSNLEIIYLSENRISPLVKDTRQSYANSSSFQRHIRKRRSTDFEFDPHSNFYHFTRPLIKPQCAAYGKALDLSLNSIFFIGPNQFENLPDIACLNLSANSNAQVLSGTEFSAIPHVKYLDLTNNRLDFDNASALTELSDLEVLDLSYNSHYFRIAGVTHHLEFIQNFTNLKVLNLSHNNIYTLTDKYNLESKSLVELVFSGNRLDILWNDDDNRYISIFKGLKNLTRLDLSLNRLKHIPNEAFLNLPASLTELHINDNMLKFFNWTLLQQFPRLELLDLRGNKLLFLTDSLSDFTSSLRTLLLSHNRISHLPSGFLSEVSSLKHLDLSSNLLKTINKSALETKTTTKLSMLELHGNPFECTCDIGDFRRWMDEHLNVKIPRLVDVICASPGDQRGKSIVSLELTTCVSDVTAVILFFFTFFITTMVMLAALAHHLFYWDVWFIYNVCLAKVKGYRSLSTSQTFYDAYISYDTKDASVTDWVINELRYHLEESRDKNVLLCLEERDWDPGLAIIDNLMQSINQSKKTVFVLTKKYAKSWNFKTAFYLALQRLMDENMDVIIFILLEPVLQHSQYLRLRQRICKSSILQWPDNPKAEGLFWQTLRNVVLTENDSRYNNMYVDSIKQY
Assay type: cell-based
Protocol: The following tests were carried out in order to determine the activity of the compounds of this invention in HEK293-Blue-hTLR-7/8/9 cells assay.
HEK293-Blue-hTLR-8 Cells Assay:
A stable HEK293-Blue-hTLR-8 cell line was purchased from InvivoGen (Cat. #: hkb-htlr8, San Diego, Calif., USA). These cells were originally designed for studying the stimulation of human TLR8 by monitoring the activation of NF-κB. A SEAP (secreted embryonic alkaline phosphatase) reporter gene was placed under the control of the IFN-β minimal promoter fused to five NF-κB and AP-1-binding sites. The SEAP was induced by activating NF-κB and AP-1 via stimulating HEK-Blue hTLR8 cells with TLR8 ligands. Therefore the reporter expression was declined by TLR8 antagonist under the stimulation of a ligand, such as R848, for incubation of 20 hrs. The cell culture supernatant SEAP reporter activity was determined using QUANTI-Blue™kit (Cat. #: rep-qb1, Invivogen, San Diego, Calif., USA) at a wavelength of 640 nm, a detection medium that turns purple or blue in the presence of alkaline phosphatase.
HEK293-Blue-hTLR8 cells were incubated at a density of […] cells/mL in a volume of 170 μL in a 96-well plate in Dulbecco's Modified Eagle's medium (DMEM) containing 4.5 g/L glucose, 50 U/mL penicillin, […], […], 2 mM L-glutamine, 10% (v/v) heat-inactivated fetal bovine serum with addition of 20 μL test compound in a serial dilution in the presence of final DMSO at 1% and 10 μL of 60 uM R848 in above DMEM, perform incubation under 37° C. in a CO2 incubator for 20 hrs. Then 20 μL of the supernatant from each well was incubated with 180 μL Quanti-blue substrate solution at 37° C. for 2 hrs and the absorbance was read at 620˜655 nm using a spectrophotometer. The signalling pathway that TLR8 activation leads to downstream NF-κB activation has been widely accepted, and therefore similar reporter assay was modified for evaluating TLR8 antagonist.

IC50 | Structure (SMILES)
42 nM | C[C@H]1C[C@@H](NCc2ccc(N3CCNCC3)cc2)CN(c2ccc(C#N)n3nccc23)C1 [Example 21, 4-[(3S,5R)-3-methyl-5-[(4-piperazin-1-ylphenyl)methylamino]-1-piperidyl]pyrazolo[1,5-a]pyridine-7-carbonitrile]
< 3.2 nM | C[C@H]1C[C@@H](N2Cc3ccc(N4CCNCC4)cc3C2)CN(c2ccc(C#N)c3ncccc23)C1 [Example 12, 5-[(3S,5R)-3-methyl-5-(5-piperazin-1-ylisoindolin-2-yl)-1-piperidyl]quinoline-8-carbonitrile]
< 3.2 nM | C[C@H]1C[C@@H](NCc2cnc(N3CCN(C)CC3)nc2)CN(c2ccc(C#N)c3ncccc23)C1 [Example 16, 5-[(3S,5R)-3-methyl-5-[[2-(4-methylpiperazin-1-yl)pyrimidin-5-yl]methylamino]-1-piperidyl]quinoline-8-carbonitrile]
6 nM | C[C@H]1C[C@@H](NCc2ccc(N3CCC(N)C3)cc2)CN(c2ccc(C#N)c3ncccc23)C1 (stereo partly drawn) [Example 13, 5-[(3R,5S)-3-[[4-(3-aminopyrrolidin-1-yl)phenyl]methylamino]-5-methyl-1-piperidyl]quinoline-8-carbonitrile]
< 3.2 nM | C[C@H]1C[C@@H](NCc2ccc(N3CCN(C)CC3)cn2)CN(c2ccc(C#N)c3ncsc23)C1 [Example 18, 7-[(3S,5R)-3-methyl-5-[[5-(4-methylpiperazin-1-yl)-2-pyridyl]methylamino]-1-piperidyl]-1,3-benzothiazole-4-carbonitrile]
< 3.2 nM | C[C@H]1C[C@@H](NCc2cnc(N3CCNCC3)nc2)CN(c2ccc(C#N)c3ncccc23)C1 [Example 17, 5-[(3S,5R)-3-methyl-5-[(2-piperazin-1-ylpyrimidin-5-yl)methylamino]-1-piperidyl]quinoline-8-carbonitrile]
5 nM | C[C@H]1C[C@@H](NCc2ccc(N3CCNCC3)cc2)CN(c2ccc(Cl)c3ncccc23)C1 [Example 22, (3R,5S)-1-(8-chloro-5-quinolyl)-5-methyl-N-[(4-piperazin-1-ylphenyl)methyl]piperidin-3-amine]
< 3.2 nM | C[C@H]1C[C@@H](NCc2cnc(N3CCNCC3)cn2)CN(c2ccc(C#N)c3ncccc23)C1 [Example 31, 5-[(3S,5R)-3-methyl-5-[(5-piperazin-1-ylpyrazin-2-yl)methylamino]-1-piperidyl]quinoline-8-carbonitrile]
< 3.2 nM | C[C@H]1C[C@@H](NCc2cnc(N3CCN[C@H](C)C3)nc2)CN(c2ccc(C#N)c3ncccc23)C1 [Example 28, 5-[(3S,5R)-3-methyl-5-[[2-[(3R)-3-methylpiperazin-1-yl]pyrimidin-5-yl]methylamino]-1-piperidyl]quinoline-8-carbonitrile]
≤ 3 nM | CC(N[C@@H]1C[C@H](C)CN(c2ccc(C#N)c3ncccc23)C1)c1ccc(N2CCNCC2)cc1 (stereo partly drawn) [Example 26, 5-[(3S,5R)-3-methyl-5-[1-(4-piperazin-1-ylphenyl)ethylamino]-1-piperidyl]quinoline-8-carbonitrile]
< 3.2 nM | C[C@H]1C[C@@H](NCc2ncc(N3CCNCC3)cn2)CN(c2ccc(C#N)c3ncccc23)C1 [Example 25, 5-[(3S,5R)-3-methyl-5-[(5-piperazin-1-ylpyrimidin-2-yl)methylamino]-1-piperidyl]quinoline-8-carbonitrile]
< 3.2 nM | C[C@H]1C[C@@H](NCc2cnc(N3CCN[C@@H](C)C3)nc2)CN(c2ccc(C#N)c3ncccc23)C1 [Example 29, 5-[(3S,5R)-3-methyl-5-[[2-[(3S)-3-methylpiperazin-1-yl]pyrimidin-5-yl]methylamino]-1-piperidyl]quinoline-8-carbonitrile]
< 3.2 nM | C[C@H]1C[C@@H](N2CCc3cc(N4CCNCC4)ccc3C2)CN(c2ccc(C#N)c3ncccc23)C1 (relative stereo) [Example 24, 5-[cis-3-methyl-5-(6-piperazin-1-yl-3,4-dihydro-1H-isoquinolin-2-yl)-1-piperidyl]quinoline-8-carbonitrile]
4 nM | C[C@H]1C[C@@H](N2Cc3cc(N4CCNCC4)cnc3C2)CN(c2ccc(C#N)c3ncccc23)C1 [Example 23, 5-[(3S,5R)-3-methyl-5-(3-piperazin-1-yl-5,7-dihydropyrrolo[3,4-b]pyridin-6-yl)-1-piperidyl]quinoline-8-carbonitrile]

The remaining lines, values behind:

Structure (SMILES) | IC50
C[C@H]1C[C@@H](NCc2ccc(N3CCNCC3)cc2)CN(c2ccc(C#N)c3nccnc23)C1 [Example 3, 8-[(3S,5R)-3-methyl-5-[(4-piperazin-1-ylphenyl)methylamino]-1-piperidyl]quinoxaline-5-carbonitrile] | 4 nM
C[C@H]1C[C@@H](NCc2ccc(N3CCNCC3)cc2F)CN(c2ccc(C#N)c3ncccc23)C1 [Example 4, 5-[(3R,58)-3-[(2-fluoro-4-piperazin-1-yl-phenyl)methylamino]-5-methyl-1-piperidyl]quinoline-8-carbonitrile] | < 3.2 nM
C[C@H]1C[C@@H](NCc2ccc(N3CCNCC3)cn2)CN(c2ccc(C#N)c3ncccc23)C1 [Example 5, 5-[(3S,5R)-3-methyl-5-[(5-piperazin-1-yl-2-pyridyl)methylamino]-1-piperidyl]quinoline-8-carbonitrile] | 6 nM
C[C@H]1C[C@@H](NCc2ccc(N3CCNCC3)nc2)CN(c2ccc(C#N)c3ncccc23)C1 [Example 10] | < 3.2 nM
C[C@H]1C[C@@H](N2Cc3ccccc3C2)CN(c2ccc(C#N)c3ncccc23)C1 [Example R2, reference compound] | 110 nM
C[C@H]1C[C@@H](NCc2ccc(N3CCNCC3)cc2)CN(c2ccc(C#N)c3ncccc23)C1 [Example 1, 5-[(3S,5R)-3-methyl-5-[(4-piperazin-1-ylphenyl)methylamino]1-piperidyl]quinoline-8-carbonitrile] | < 3.2 nM
C[C@H]1C[C@@H](N(C)Cc2ccc(N3CCNCC3)cc2)CN(c2ccc(C#N)c3ncccc23)C1 [Example 9, 5-[(3S,5R)-3-methyl-5-[methyl-[(4-piperazin-1-ylphenyl)methyl]amino]-1-piperidyl]quinoline-8-carbonitrile] | 5 nM
C[C@H]1C[C@@H](NCc2ccc(N3CCN(C)CC3)cc2)CN(c2ccc(C#N)c3ncccc23)C1 [Example 7, 5-[(3S,5R)-3-methyl-5-[[4-(4-methylpiperazin-1-yl)phenyl]methylamino]-1-piperidyl]quinoline-8-carbonitrile] | < 3.2 nM
C[C@H]1C[C@@H](NCc2cccc(N3CCN(C)CC3)c2)CN(c2ccc(C#N)c3ncccc23)C1 [Example 6, 5-[(3S,5R)-3-methyl-5-[[3-(4-methylpiperazin-1-yl)phenyl]methylamino]-1-piperidyl]quinoline-8-carbonitrile] | 4 nM
C[C@H]1C[C@@H](NCc2ccc3c(c2)CCNC3)CN(c2ccc(C#N)c3ncccc23)C1 [Example 11, 5-[(3S,5R)-3-methyl-5-(1,2,3,4-tetrahydroisoquinolin-6-ylmethylamino)-1-piperidyl]quinoline-8-carbonitrile] | < 3.2 nM
C[C@H]1C[C@@H](NCc2ccc(C3CCNCC3)cc2)CN(c2ccc(C#N)c3ncccc23)C1 [Example 2, 5-[(3S,5R)-3-methyl-5-[[4-(4-piperidyl)phenyl]methylamino]-1-piperidyl]quinoline-8-carbonitrile] | 6 nM
